According to ChEMBL document CHEMBL5715954, “Silencing c-Myc translation as a therapeutic strategy through targeting PI3Kδ and CK1ε in hematological malignancies” (Blood, 2017):

How the values were obtained:
Design in all cases: scale not given: the % may be the effect or the level left
[1] = target: T1, Protein kinase C epsilon type (Homo sapiens) (UniProt Q02156); experiment: Inhibition of human PKCepsilon assessed as enzyme activity at 1 uM using ERMRPRKRQGSVRRRV as substrate preincubated for 20 mins followed by [gamma-33P]-ATP addition and measured after 120 mins by radiometric Hot-SpotSM Kinase assay relative to control
T1 sequence (whole entry): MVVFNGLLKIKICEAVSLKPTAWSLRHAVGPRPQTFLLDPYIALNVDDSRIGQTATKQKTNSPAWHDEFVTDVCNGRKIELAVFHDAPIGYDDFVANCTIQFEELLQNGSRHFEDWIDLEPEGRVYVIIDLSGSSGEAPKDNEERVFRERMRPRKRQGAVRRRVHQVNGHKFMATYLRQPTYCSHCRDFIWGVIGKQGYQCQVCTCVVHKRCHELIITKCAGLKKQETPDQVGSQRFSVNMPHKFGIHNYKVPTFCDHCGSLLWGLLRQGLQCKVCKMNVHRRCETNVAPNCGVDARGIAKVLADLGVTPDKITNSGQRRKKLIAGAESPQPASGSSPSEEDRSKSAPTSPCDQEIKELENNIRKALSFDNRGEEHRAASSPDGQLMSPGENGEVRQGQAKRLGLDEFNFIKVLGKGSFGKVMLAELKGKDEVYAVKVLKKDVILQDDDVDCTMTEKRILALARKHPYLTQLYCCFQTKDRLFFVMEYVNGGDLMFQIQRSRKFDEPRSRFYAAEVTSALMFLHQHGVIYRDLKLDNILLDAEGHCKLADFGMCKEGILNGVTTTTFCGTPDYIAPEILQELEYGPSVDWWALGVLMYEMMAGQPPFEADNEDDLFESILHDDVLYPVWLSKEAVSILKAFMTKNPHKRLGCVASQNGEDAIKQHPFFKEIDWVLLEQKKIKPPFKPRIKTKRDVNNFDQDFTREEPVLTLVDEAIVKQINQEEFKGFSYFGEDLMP

[2] = target: Serine/threonine-protein kinase 10 (Homo sapiens) (UniProt O94804); experiment: Inhibition of human LOK/STK10 assessed as enzyme activity at 1 uM using RLGRDKYKTLRQIRQ as substrate preincubated for 20 mins followed by [gamma-33P]-ATP addition and measured after 120 mins by radiometric Hot-SpotSM Kinase assay relative to control
[3] = target: T2, Ephrin type-A receptor 1 (Homo sapiens) (UniProt P21709); experiment: Inhibition of human EPHA1 assessed as enzyme activity at 1 uM using poly[Glu:Tyr] (4:1) as substrate preincubated for 20 mins followed by [gamma-33P]-ATP addition and measured after 120 mins by radiometric Hot-SpotSM Kinase assay relative to control
T2 sequence (whole entry): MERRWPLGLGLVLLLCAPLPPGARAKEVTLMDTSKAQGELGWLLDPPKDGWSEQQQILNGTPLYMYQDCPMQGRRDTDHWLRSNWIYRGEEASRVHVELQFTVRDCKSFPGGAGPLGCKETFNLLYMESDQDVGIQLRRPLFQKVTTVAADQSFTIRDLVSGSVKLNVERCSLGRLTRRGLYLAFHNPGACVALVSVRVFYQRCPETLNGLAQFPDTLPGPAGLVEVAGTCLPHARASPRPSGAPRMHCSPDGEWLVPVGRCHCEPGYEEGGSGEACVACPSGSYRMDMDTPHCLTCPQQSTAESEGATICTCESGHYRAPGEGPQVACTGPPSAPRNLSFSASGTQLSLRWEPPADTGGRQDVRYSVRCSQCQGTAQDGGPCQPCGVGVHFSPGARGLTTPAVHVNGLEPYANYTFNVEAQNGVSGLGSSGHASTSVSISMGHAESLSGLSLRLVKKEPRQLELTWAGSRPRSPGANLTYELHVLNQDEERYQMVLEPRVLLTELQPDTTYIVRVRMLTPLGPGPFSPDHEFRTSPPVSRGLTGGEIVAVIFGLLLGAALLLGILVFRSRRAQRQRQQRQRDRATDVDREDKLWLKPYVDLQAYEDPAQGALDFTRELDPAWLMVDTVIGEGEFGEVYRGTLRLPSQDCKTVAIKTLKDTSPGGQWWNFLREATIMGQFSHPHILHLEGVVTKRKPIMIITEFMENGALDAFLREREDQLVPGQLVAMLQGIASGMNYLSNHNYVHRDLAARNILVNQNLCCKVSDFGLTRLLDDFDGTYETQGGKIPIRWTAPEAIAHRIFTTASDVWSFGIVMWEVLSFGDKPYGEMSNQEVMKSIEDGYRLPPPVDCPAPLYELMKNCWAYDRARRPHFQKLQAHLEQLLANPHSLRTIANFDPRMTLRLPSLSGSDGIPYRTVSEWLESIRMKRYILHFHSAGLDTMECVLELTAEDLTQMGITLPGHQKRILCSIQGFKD

[4] = target: RAC-beta serine/threonine-protein kinase (Homo sapiens) (UniProt P31751); experiment: Inhibition of human AKT2 assessed as enzyme activity at 1 uM using KGSGSGRPRTSSFAEG as substrate preincubated for 20 mins followed by [gamma-33P]-ATP addition and measured after 120 mins by radiometric Hot-SpotSM Kinase assay relative to control
[5] = target: T3, Serine/threonine-protein kinase Sgk1 (Homo sapiens) (UniProt O00141); experiment: Inhibition of human SGK1 assessed as enzyme activity at 1 uM using KGSGSGRPRTSSFAEG as substrate preincubated for 20 mins followed by [gamma-33P]-ATP addition and measured after 120 mins by radiometric Hot-SpotSM Kinase assay relative to control
T3 sequence (whole entry): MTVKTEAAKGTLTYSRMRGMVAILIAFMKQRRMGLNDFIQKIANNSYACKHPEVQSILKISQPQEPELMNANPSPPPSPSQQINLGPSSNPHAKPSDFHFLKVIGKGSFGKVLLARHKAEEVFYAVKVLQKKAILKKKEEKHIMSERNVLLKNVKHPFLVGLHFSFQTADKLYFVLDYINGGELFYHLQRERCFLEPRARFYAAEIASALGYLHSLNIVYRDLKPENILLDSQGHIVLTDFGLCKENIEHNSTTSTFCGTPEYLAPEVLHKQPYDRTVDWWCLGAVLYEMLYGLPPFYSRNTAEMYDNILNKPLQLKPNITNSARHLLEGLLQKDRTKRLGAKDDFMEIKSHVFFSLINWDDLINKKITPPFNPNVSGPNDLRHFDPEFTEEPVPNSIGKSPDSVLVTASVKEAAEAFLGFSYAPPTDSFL

[6] = target: Receptor tyrosine-protein kinase erbB-4 (Homo sapiens) (UniProt Q15303); experiment: Inhibition of human ERBB4 assessed as enzyme activity at 1 uM using poly[Glu:Tyr] (4:1) as substrate preincubated for 20 mins followed by [gamma-33P]-ATP addition and measured after 120 mins by radiometric Hot-SpotSM Kinase assay relative to control
[7] = target: Tyrosine-protein kinase ABL2 (Homo sapiens) (UniProt P42684); experiment: Inhibition of human ABL2 assessed as enzyme activity at 1 uM using EAIYAAPFAKKK as substrate preincubated for 20 mins followed by [gamma-33P]-ATP addition and measured after 120 mins by radiometric Hot-SpotSM Kinase assay relative to control
Tyrosine-protein kinase ABL2 (Homo sapiens), sequence (P42684 whole entry): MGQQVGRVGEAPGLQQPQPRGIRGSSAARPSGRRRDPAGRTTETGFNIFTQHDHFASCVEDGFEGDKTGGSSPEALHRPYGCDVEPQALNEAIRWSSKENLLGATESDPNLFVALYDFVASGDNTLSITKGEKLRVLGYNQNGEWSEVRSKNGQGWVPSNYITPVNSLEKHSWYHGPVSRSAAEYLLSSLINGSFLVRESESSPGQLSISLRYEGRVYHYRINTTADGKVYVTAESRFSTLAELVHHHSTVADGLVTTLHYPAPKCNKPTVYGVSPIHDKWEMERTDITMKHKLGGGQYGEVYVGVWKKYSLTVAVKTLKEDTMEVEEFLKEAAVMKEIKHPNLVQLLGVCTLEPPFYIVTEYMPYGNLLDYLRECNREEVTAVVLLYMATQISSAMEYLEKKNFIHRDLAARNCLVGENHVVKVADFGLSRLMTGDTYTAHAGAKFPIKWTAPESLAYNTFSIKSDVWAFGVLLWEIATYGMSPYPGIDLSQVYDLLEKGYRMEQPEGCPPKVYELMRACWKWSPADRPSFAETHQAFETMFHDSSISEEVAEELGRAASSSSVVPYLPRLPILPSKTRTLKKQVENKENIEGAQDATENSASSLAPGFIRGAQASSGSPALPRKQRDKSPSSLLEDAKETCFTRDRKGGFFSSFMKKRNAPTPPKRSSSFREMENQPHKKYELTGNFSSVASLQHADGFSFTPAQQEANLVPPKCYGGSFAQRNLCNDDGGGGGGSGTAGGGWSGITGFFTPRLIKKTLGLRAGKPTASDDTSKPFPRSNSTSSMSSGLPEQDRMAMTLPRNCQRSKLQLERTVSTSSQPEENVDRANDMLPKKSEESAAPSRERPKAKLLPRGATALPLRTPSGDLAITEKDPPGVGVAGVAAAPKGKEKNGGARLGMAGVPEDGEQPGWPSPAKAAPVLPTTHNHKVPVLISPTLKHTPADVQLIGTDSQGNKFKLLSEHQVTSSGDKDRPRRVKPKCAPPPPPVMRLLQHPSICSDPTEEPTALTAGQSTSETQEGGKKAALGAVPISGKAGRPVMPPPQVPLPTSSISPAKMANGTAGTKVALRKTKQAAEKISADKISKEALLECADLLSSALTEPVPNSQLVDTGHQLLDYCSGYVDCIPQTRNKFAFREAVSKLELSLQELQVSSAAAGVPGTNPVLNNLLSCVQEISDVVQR

Receptor tyrosine-protein kinase erbB-4 (Homo sapiens), sequence (Q15303 whole entry): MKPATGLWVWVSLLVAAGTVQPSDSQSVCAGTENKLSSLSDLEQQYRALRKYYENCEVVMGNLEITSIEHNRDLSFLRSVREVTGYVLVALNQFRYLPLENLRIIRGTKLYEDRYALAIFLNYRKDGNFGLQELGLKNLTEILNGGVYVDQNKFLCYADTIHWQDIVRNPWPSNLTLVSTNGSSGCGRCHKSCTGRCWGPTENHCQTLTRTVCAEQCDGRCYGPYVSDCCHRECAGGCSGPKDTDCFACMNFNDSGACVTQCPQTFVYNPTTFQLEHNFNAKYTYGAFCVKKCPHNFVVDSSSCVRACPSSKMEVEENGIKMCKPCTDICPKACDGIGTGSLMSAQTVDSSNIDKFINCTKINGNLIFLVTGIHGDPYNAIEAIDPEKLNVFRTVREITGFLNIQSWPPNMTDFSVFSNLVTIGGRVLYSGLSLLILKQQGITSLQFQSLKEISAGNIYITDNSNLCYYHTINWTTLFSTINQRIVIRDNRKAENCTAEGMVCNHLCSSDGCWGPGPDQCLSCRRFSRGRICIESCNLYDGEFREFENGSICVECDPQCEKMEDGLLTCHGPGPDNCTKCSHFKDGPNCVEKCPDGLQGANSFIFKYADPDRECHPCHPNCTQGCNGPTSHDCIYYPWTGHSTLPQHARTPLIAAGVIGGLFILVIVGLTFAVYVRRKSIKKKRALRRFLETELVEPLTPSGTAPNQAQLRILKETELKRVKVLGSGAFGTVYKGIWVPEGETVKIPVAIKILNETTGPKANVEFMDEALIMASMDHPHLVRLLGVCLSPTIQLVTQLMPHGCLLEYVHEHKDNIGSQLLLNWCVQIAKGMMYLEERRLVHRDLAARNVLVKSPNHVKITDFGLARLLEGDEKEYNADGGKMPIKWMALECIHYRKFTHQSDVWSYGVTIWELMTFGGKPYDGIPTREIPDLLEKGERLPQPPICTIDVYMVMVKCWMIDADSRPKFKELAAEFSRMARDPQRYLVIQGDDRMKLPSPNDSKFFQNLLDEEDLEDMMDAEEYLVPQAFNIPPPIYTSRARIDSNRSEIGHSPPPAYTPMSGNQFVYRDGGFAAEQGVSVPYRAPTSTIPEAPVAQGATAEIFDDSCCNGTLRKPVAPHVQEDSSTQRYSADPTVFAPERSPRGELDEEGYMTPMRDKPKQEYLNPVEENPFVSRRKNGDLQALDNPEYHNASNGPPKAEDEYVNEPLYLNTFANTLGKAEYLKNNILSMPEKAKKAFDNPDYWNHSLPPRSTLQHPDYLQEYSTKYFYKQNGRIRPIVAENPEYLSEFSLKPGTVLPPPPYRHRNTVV
RAC-beta serine/threonine-protein kinase (Homo sapiens), sequence (P31751 whole entry): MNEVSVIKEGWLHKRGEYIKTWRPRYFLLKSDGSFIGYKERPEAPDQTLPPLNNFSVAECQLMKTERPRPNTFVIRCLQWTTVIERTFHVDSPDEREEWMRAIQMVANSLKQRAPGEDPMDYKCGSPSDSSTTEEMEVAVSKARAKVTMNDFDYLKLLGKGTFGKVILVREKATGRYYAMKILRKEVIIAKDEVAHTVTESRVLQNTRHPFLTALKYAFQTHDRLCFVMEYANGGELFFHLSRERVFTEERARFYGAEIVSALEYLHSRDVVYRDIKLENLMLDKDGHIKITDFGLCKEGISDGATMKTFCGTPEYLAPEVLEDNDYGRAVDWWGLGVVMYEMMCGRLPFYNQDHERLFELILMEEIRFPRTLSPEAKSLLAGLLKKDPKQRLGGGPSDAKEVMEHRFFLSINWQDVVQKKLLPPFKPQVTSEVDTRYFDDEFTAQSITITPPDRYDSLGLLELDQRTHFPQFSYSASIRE
Serine/threonine-protein kinase 10 (Homo sapiens), sequence (O94804 whole entry, looked up): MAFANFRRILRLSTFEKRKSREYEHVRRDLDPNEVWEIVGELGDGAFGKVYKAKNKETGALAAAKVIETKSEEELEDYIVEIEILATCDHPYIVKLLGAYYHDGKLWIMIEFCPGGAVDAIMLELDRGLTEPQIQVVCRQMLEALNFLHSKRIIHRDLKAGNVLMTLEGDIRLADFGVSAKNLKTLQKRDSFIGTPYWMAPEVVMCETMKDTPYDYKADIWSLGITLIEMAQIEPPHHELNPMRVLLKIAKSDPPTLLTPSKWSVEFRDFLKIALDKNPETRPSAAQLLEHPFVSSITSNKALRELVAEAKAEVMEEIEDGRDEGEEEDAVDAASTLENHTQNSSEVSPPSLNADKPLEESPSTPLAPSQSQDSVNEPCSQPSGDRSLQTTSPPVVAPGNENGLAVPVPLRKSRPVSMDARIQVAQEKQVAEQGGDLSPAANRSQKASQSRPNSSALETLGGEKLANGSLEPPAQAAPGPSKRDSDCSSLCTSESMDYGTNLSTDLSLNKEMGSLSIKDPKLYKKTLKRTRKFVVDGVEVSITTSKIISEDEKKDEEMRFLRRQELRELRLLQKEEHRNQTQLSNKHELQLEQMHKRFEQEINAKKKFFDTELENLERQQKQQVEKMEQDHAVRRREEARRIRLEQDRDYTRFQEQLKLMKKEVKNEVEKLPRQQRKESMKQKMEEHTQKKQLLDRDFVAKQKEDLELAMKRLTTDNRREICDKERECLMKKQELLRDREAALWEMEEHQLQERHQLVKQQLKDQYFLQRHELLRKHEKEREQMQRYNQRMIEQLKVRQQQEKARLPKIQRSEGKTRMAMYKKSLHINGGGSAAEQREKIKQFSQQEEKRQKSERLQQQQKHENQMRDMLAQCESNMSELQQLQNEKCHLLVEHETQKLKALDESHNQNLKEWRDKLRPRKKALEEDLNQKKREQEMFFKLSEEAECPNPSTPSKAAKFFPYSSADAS

| SMILES | Activity [1] [%] | Activity [2] [%] | Activity [3] [%] | Activity [4] [%] | Activity [5] [%] | Activity [6] [%] | Activity [7] [%] |
| --- | --- | --- | --- | --- | --- | --- | --- |
| CC[C@H](Nc1ncnc2[nH]cnc12)c1nc2cccc(F)c2c(=O)n1-c1ccccc1 | 108 | 94.4 | 91.4 | 91.6 | 105 | 101 | 89.1 |
| C[C@H](Nc1ncnc2nc[nH]c12)c1cc2cccc(Cl)c2c(=O)n1-c1ccccc1 | 107 | 94.4 | 95.2 | 92 | 102 | 97.4 | 91.7 |
| CC(C)Oc1ccc(-c2nn([C@@H](C)c3oc4ccc(F)cc4c(=O)c3-c3cccc(F)c3)c3ncnc(N)c23)cc1F [UMBRALISIB] | 109 | 99 | 96.4 | 90.8 | 102 | 101 | 90.6 |
